Test results reported in US20030073846A1, “Aminoalcohol derivatives” (priority 2000, published 2003).
Structures can show the parent of a compound that is named as a salt.

Test system: anesthetized dog
Test: Effect on the increase in intravesical pressure induced by carbachol in anesthetized dog
Type: in vivo
Settings: for Increase in intravesical pressure: female Beagle dogs under halothane anesthesia, N = 3, P < 0.01 vs Control; for relaxation effect on the smooth muscle in the urinary bladder: conclusion in words from the test results of Test 1
Procedure: Effect on the increase in intravesical pressure induced by carbachol in anesthetized dog
Female Beagle dogs weighing 8.0-15.0 kg were fasted for 24 hours and maintained under halothane anesthesia. A 12F Foley catheter was lubricated with water soluble jelly, inserted into the urethral orifice and advanced approximately 10 cm until the balloon tip was placed well inside the bladder. The balloon was then inflated with 5 ml of room air and catheter slowly withdrawn just part the first resistance that is felt at the bladder neck. Urine was completely drained out through the catheter, and 30 ml of biological saline was infused. The catheter was connected to pressure transducer, and intravesical pressure was continuously recorded. The test compound was injected intravenously at five minutes before the administration of carbachol (1.8 μg/kg).

Structure (SMILES)	Increase in intravesical pressure (0.100 mg/kg intravenously five minutes before carbachol (1.8 μg/kg), Control 6.9 ± 0.7)	relaxation effect on the smooth muscle in the urinary bladder	Increase in intravesical pressure (0.032 mg/kg intravenously five minutes before carbachol (1.8 μg/kg), Control 6.8 ± 1.1)
CC(C)(Cc1ccc(Oc2ccc(C(N)=O)cn2)cc1)NC[C@H](O)COc1cccc2[nH]c3ccccc3c12 [Test compound (2), (S)-4-[2-Hydroxy-3-[[2-[4-(5-carbamoyl-2-pyridyloxy)phenyl]-1,1-dimethylethyl]amino]propoxy]-carbazole hydrochloride]	4.3 ± 0.3 mmHg	possess a relaxation effect on the smooth muscle in the urinary bladder	–
OC[C@H](Cc1ccc(O)cc1)NC[C@H](O)COc1ccccc1 [Test compound (1), (S)-1-Phenoxy-3-[[(S)-1-hydroxy-3-(4-hydroxyphenyl)-2-propyl]amino]-2-propanol]	–	possess a relaxation effect on the smooth muscle in the urinary bladder	2.0 ± 0.3 mmHg
